Assay results: patent publication US8372854B2, “Pyrrolo[2,3-D]pyrimidine compounds” (Pfizer Inc., priority 2009, dated 2013)

Columns and labels:
Format in all cases: biochemical
JAK2 = molecular target: T1, JAK2 (Homo sapiens, UniProt O60674); assay: JAK enzymatic assay (peptide mobility shift), JAK2; conditions: recombinant JAK2 2 nM, ATP 4 μM, 1 μM JAKtide peptide, 150 minutes
T1 construct: purchased Invitrogen Corporation, Madison, Wis; PV4210
Text: (§1) Recombinant JAK1 (Catalog Number PV4775), JAK2 (Catalog Number PV4210) and JAK3 (Catalog Number PV3855) were purchased from (Invitrogen Corporation, Madison, Wis.). Tyk2 (His-Tyk2 (888-1182, C936S, C1142S)) used in this study was expressed and purified at Pfizer Laboratories. Adenosine 5′-triphosphate (ATP) was obtained from (Sigma Chemical Company, St. Louis, Mo.). The JAKtide peptide (peptide sequence, FITC-[…]) used for the JAK2 and JAK3 assays and the IRS-1 peptide (peptide sequence, 5-FAM-[…]) used for the JAK1 and Tyk2 assays were purchased from (American Peptide Company, Sunnyvale, Calif.). Coating Reagent 3 was purchased from (Caliper Life Sciences, Hopkinton, Mass.).
(§2) A peptide mobility shift assay was used to quantify the phosphorylation of the JAKtide (JAK2 and JAK3) or the IRS-1 peptide ([…] and Tyk2). Reactions were carried out in a 384-well plate (Matrical MP-101) in a 10 μL total volume. Reaction mixtures contained 20 mM HEPES, pH 7.4, 10 mM magnesium chloride, 0.01% bovine serum albumin (BSA), 0.0005% Tween-20, ATP (4 μM for JAK2 and JAK3, 40 μM for JAK1 and 7 μM for Tyk2)), 2% DMSO and 1 μM peptide substrate (JAKtide for JAK2 and JAK3 and IRS-1 peptide for JAK1 and Tyk2). Compounds were diluted serially in 100% dimethyl sulfoxide and tested in an 11 point dose response in duplicate or quadruplicate (200 nl of compound/DMSO was added per 10 μL reaction). The reactions were initiated by the addition of enzyme to the final concentration of 2 nM JAK2, 1 nM JAK3, 12 nM Tyk2 or 20 nM JAK1. The assay was run for 240 minutes for JAK1, 150 minutes for JAK2, 90 minutes for JAK3 and 70 minutes for Tyk2. The assays were stopped at the specified times with 20 uL of 140 mM HEPES, 22.5 mM EDTA and 0.15% Coating Reagent 3. The plates were placed on a LabChip 3000 (LC3000) instrument from (Caliper Life Sciences) to measure the formation of phosphorylated peptide. Data was analyzed using Hits Well Analyzer Software from (Caliper Life Sciences) to obtain the amount of product formed.
(§3) Data was then imported into an internal application where each data point is expressed as % inhibition based on uninhibited and no enzyme controls. Dose-response data is then fit using a 4 parameter logistic equation (Equation 1) to determine an IC50.
(§4) Where max is the fitted uninhibited value, min is the fitted complete inhibition value, and s is the slope factor.

JAK3 = molecular target: T2, JAK3 (Homo sapiens, UniProt P52333); assay: JAK enzymatic assay (peptide mobility shift), JAK3; conditions: recombinant JAK3 1 nM, ATP 4 μM, 1 μM JAKtide peptide, 90 minutes
T2 construct: purchased Invitrogen Corporation, Madison, Wis; PV3855
T2 sequence (P52333 1-1124): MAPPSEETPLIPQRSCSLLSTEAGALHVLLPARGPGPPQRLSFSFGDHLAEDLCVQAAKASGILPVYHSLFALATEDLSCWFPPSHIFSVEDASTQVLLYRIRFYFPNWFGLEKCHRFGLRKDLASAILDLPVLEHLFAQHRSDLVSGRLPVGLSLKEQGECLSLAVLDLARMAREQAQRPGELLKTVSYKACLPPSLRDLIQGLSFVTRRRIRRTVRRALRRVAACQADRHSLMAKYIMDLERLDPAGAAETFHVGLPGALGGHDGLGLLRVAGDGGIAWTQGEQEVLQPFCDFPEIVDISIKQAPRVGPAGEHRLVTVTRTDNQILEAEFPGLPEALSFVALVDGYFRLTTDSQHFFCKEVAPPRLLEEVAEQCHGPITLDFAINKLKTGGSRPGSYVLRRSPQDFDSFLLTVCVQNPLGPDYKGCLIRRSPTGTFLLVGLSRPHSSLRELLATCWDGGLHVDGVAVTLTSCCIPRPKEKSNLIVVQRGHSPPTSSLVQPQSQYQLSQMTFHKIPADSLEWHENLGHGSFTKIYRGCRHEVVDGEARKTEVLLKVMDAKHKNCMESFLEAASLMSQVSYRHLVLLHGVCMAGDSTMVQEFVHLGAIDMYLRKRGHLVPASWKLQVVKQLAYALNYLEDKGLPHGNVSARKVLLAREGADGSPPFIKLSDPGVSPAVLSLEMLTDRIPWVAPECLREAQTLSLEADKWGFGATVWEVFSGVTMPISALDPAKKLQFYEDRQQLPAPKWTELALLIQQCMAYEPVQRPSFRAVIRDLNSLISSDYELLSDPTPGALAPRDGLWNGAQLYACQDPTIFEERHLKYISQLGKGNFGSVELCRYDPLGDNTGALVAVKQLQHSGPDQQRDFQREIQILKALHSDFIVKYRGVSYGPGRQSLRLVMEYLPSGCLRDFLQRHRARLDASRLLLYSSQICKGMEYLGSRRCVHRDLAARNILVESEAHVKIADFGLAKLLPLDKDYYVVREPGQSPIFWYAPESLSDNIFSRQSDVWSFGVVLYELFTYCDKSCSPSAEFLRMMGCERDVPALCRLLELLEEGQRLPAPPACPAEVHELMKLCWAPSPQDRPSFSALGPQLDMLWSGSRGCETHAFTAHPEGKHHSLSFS
Text: Recombinant JAK1 (Catalog Number PV4775), JAK2 (Catalog Number PV4210) and JAK3 (Catalog Number PV3855) were purchased from (Invitrogen Corporation, Madison, Wis.). Tyk2 (His-Tyk2 (888-1182, C936S, C1142S)) used in this study was expressed and purified at Pfizer Laboratories. Adenosine 5′-triphosphate (ATP) was obtained from (Sigma Chemical Company, St. Louis, Mo.). […] Coating Reagent 3 was purchased from (Caliper Life Sciences, Hopkinton, Mass.).
as §2, §3, §4

JAK1 = molecular target: T3, JAK1 (Homo sapiens, UniProt P23458); assay: JAK enzymatic assay (peptide mobility shift), JAK1; conditions: recombinant JAK1 20 nM, ATP 40 μM, 1 μM IRS-1 peptide, 240 minutes
T3 construct: purchased Invitrogen Corporation, Madison, Wis; PV4775
Text: as §1, §2, §3, §4

T1 sequence (O60674 whole entry): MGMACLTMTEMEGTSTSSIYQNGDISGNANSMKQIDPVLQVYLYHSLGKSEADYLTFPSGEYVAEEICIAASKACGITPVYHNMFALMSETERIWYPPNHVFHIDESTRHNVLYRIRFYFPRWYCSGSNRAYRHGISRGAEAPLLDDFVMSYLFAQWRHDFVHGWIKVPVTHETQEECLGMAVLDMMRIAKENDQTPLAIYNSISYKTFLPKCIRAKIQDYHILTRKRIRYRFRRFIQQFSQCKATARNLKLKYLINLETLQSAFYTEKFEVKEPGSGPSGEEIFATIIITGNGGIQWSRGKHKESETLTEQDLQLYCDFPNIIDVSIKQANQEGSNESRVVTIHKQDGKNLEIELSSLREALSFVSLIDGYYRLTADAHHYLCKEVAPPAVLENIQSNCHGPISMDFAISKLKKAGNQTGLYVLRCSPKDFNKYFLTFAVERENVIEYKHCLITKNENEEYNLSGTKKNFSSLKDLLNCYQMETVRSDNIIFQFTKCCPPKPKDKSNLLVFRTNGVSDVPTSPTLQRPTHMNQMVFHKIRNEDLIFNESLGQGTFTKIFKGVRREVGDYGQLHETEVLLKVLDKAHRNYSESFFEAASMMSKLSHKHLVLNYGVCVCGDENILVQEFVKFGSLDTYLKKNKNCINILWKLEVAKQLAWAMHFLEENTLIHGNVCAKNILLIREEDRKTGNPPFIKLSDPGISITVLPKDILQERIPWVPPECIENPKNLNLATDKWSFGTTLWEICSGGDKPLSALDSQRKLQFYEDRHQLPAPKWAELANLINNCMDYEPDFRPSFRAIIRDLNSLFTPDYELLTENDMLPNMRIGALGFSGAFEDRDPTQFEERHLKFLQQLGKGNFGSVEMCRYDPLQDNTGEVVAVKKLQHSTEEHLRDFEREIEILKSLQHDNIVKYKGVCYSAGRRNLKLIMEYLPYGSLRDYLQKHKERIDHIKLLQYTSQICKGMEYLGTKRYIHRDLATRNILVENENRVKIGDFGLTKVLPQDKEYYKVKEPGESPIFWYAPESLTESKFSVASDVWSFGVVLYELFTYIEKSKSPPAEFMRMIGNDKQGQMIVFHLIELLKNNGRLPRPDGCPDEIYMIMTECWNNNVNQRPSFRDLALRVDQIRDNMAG
T3 sequence (P23458 whole entry): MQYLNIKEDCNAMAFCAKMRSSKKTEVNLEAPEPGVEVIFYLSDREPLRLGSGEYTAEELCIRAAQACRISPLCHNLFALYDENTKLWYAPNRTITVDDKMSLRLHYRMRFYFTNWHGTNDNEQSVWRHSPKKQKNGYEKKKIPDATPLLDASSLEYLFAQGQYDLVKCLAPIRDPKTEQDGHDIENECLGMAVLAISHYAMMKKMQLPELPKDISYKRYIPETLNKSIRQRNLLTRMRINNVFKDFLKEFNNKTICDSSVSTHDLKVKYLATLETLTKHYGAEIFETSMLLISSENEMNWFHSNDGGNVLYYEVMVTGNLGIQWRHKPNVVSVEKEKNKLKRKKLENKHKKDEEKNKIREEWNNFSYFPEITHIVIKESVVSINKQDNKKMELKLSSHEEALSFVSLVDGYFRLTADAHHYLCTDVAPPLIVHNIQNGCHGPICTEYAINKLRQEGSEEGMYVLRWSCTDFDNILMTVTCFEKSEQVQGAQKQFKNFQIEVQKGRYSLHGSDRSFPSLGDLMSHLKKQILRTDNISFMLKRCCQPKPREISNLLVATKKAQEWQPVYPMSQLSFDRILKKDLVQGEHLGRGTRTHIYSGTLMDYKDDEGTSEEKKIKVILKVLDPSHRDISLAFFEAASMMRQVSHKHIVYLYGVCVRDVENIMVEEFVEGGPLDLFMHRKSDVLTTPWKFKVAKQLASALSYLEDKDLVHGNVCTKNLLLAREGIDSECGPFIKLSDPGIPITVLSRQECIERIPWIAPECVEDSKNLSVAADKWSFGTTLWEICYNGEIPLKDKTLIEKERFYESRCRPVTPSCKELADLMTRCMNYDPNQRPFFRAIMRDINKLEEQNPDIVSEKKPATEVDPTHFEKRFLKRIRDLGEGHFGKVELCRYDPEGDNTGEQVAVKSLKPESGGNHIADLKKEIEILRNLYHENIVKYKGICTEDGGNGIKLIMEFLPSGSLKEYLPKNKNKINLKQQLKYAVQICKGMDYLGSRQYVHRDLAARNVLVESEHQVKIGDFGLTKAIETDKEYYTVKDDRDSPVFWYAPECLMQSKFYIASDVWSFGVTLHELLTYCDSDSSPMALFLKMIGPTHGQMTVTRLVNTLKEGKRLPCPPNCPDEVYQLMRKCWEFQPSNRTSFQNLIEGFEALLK

Question: How did the IC50 (JAK2) turn out when `Cc1ccc(NS(=O)(=O)C[C@H]2CC[C@H](N(C)c3ncnc4[nH]ccc34)CC2)cn1` [Example 30, N-(6-methylpyridin-3-yl)-1-{trans-4-[methyl(7H-pyrrolo[2,3-d]pyrimidin-4-yl)amino]cyclohexyl}-methanesulfonamide] was run?
Answer: 47.6 nM

Question: What about the IC50 (JAK3) of the same compound?
Answer: 221 nM

Question: What about the IC50 (JAK1) of the same compound?
Answer: 16.5 nM

Question: What does the source list for `CN(c1ncnc2[nH]ccc12)[C@H]1CC[C@H](CS(=O)(=O)Nc2ccc3c(c2)OCCCO3)CC1` [Example 27, N-(3,4-dihydro-2H-1,5-benzodioxepin-7-yl)-1-{trans-4-[methyl(7H-pyrrolo[2,3-d]-pyrimidin-4-yl)amino]-cyclo-hexyl}methanesulfonamide]?
Answer: IC50 (JAK2): 7.47 nM; IC50 (JAK3): 54.3 nM; IC50 (JAK1): 2.19 nM

Question: What does the source list for `CN(c1ncnc2[nH]ccc12)[C@H]1CC[C@H](CS(=O)(=O)NCCc2ccc(C(F)(F)F)cc2)CC1` [Example 12, 1-{trans-4-[methyl(7H-pyrrolo[2,3-d]pyrimidin-4-yl)amino]cyclohexyl}-N-{2-[4-(trifluoromethyl)-phenyl]ethyl}-methanesulfonamide]?
Answer: IC50 (JAK2): 55.5 nM; IC50 (JAK3): 511 nM; IC50 (JAK1): 16.5 nM

Question: How did the IC50 (JAK2) turn out when `COc1ccc(CNS(=O)(=O)C[C@H]2CC[C@H](N(C)c3ncnc4[nH]ccc34)CC2)cc1` [Example 18, N-(4-methoxybenzyl)-1-{trans-4-[methyl(7H-pyrrolo[2,3-d]-pyrimidin-4-yl)amino]-cyclo-hexyl}methanesulfonamide] was run?
Answer: 27.5 nM

Question: And the IC50 (JAK3)?
Answer: 175 nM

Question: What about the IC50 (JAK1) of the same compound?
Answer: 21.3 nM

Question: How did the IC50 (JAK2) turn out when `CN(c1ncnc2[nH]ccc12)[C@H]1CC[C@H](CS(=O)(=O)NCC(C)(F)c2cccc(F)c2)CC1` (stereo partly drawn) [Example 9, N-[2-fluoro-2-(3-fluoro-phenyl)propyl]-1-{trans-4-[methyl(7H-pyrrolo[2,3-d]-pyrimidin-4-yl)amino]-cyclohexyl}-methanesulfonamide] was run?
Answer: 39.7 nM

Question: What about the IC50 (JAK3) of the same compound?
Answer: 531 nM

Question: What about the IC50 (JAK1) of the same compound?
Answer: 10.5 nM

Question: How did the IC50 (JAK2) turn out when `CN(c1ncnc2[nH]ccc12)[C@H]1CC[C@H](CS(=O)(=O)Nc2ccc3[nH]ccc3c2)CC1` [Example 24, N-1H-indol-5-yl-1-{trans-4-[methyl(7H-pyrrolo[2,3-d]-pyrimidin-4-yl)amino]-cyclohexyl}-methanesulfonamide] was run?
Answer: 4.55 nM

Question: What about the IC50 (JAK3) of the same compound?
Answer: 55.8 nM

Question: What about the IC50 (JAK1) of the same compound?
Answer: 1.65 nM

Question: What does the source list for `Cc1cccc(CCNS(=O)(=O)C[C@H]2CC[C@H](N(C)c3ncnc4[nH]ccc34)CC2)n1` [Example 50, N-[2-(6-methylpyridin-2-yl)ethyl]-1-{trans-4-[methyl(7H-pyrrolo[2,3-d]-pyrimidin-4-yl)amino]-cyclohexyl}-methanesulfonamide]?
Answer: IC50 (JAK2): 80.6 nM; IC50 (JAK3): 633 nM; IC50 (JAK1): 21.6 nM

Question: Which results are given for `Cc1ccc(CCNS(=O)(=O)C[C@H]2CC[C@H](N(C)c3ncnc4[nH]ccc34)CC2)cc1` [Example 7, N-[2-(4-methylphenyl)-ethyl]-1-{trans-4-[methyl-(7H-pyrrolo[2,3-d]pyrimidin-4-yl)amino]cyclohexyl}-methanesulfonamide]?
Answer: IC50 (JAK2): 11.3 nM; IC50 (JAK3): 137 nM; IC50 (JAK1): 4.44 nM

Question: `CN(c1ncnc2[nH]ccc12)[C@H]1CC[C@H](CS(=O)(=O)NCCc2ccc(O)cc2)CC1` [Example 3, N-[2-(4-hydroxyphenyl)-ethyl]-1-{trans-4-[methyl-(7H-pyrrolo[2,3-d]pyrimidin-4-yl)amino]cyclohexyl}-methanesulfonamide] was tested. Which IC50 (JAK2) did it give?
Answer: 28.6 nM

Question: And the IC50 (JAK3)?
Answer: 257 nM

Question: And the IC50 (JAK1)?
Answer: 2.25 nM

Question: For `CN(Cc1cccc(N)n1)S(=O)(=O)C[C@H]1CC[C@H](N(C)c2ncnc3[nH]ccc23)CC1` [Example 29, N-[(6-aminopyridin-2-yl)methyl]-N-methyl-1-{trans-4-[methyl(7H-pyrrolo[2,3-d]pyrimidin-4-yl)amino]cyclohexyl}-methanesulfonamide], which IC50 (JAK2) is on record?
Answer: 51 nM

Question: And the IC50 (JAK3)?
Answer: 514 nM

Question: And the IC50 (JAK1)?
Answer: 16.7 nM

Question: With `COc1cccc(CCNS(=O)(=O)C[C@H]2CC[C@H](N(C)c3ncnc4[nH]ccc34)CC2)c1` [Example 10, N-[2-(3-methoxyphenyl)-ethyl]-1-{trans-4-[methyl-(7H-pyrrolo[2,3-d]pyrimidin-4-yl)amino]cyclohexyl}-methanesulfonamide] as the compound, how does the IC50 (JAK2) read?
Answer: 34.1 nM

Question: What about the IC50 (JAK3) of the same compound?
Answer: 301 nM

Question: And the IC50 (JAK1)?
Answer: 11 nM

Question: What does the source list for `CN(c1ncnc2[nH]ccc12)[C@H]1CC[C@H](CS(=O)(=O)NCCc2ccc(Cl)cc2)CC1` [Example 31, N-[2-(4-chlorophenyl)ethyl]-1-{trans-4-[methyl(7H-pyrrolo[2,3-d]pyrimidin-4-yl)amino]cyclohexyl}-methanesulfonamide]?
Answer: IC50 (JAK2): 19 nM; IC50 (JAK3): 154 nM; IC50 (JAK1): 3.67 nM

Question: For `CN(Cc1cccnc1)S(=O)(=O)C[C@H]1CC[C@H](N(C)c2ncnc3[nH]ccc23)CC1` [Example 35, N-methyl-1-{trans-4-[methyl(7H-pyrrolo[2,3-d]-pyrimidin-4-yl)amino]-cyclohexyl}-N-(pyridin-3-ylmethyl)-methanesulfonamide], which IC50 (JAK2) is on record?
Answer: 76.1 nM

Question: And the IC50 (JAK3)?
Answer: 622 nM

Question: And the IC50 (JAK1)?
Answer: 6.85 nM

Question: How did the IC50 (JAK2) turn out when `Cc1cc2cc(CNS(=O)(=O)C[C@H]3CC[C@H](N(C)c4ncnc5[nH]ccc45)CC3)ccc2[nH]1` [Example 34, N-[(2-methyl-1H-indol-5-yl)methyl]-1-{trans-4-[methyl(7H-pyrrolo[2,3-d]-pyrimidin-4-yl)amino]-cyclohexyl}-methanesulfonamide] was run?
Answer: 24.7 nM

Question: And the IC50 (JAK3)?
Answer: 224 nM

Question: What about the IC50 (JAK1) of the same compound?
Answer: 6.76 nM

Question: With `Cc1cc(C)nc(CNS(=O)(=O)C[C@H]2CC[C@H](N(C)c3ncnc4[nH]ccc34)CC2)n1` [Example 51, N-[(4,6-dimethylpyrimidin-2-yl)methyl]-1-{trans-4-[methyl(7H-pyrrolo[2,3-d]-pyrimidin-4-yl)amino]cyclohexyl}-methanesulfonamide] as the compound, how does the IC50 (JAK2) read?
Answer: 20.2 nM

Question: What about the IC50 (JAK3) of the same compound?
Answer: 237 nM

Question: And the IC50 (JAK1)?
Answer: 23.3 nM

Question: With `CN(c1ncnc2[nH]ccc12)[C@H]1CC[C@H](CS(=O)(=O)Nc2ccc(Cl)nc2)CC1` [Example 25, N-(6-chloropyridin-3-yl)-1-{trans-4-[methyl(7H-pyrrolo[2,3-d]pyrimidin-4-yl)-amino]cyclohexyl}-methanesulfonamide] as the compound, how does the IC50 (JAK2) read?
Answer: 57.4 nM

Question: What about the IC50 (JAK3) of the same compound?
Answer: 228 nM

Question: What about the IC50 (JAK1) of the same compound?
Answer: 18.6 nM
